Measured values as given in ChEMBL document CHEMBL1158280, “Specific inhibition of human immunodeficiency virus type 1 reverse transcriptase mediated by soulattrolide, a coumarin isolated from the latex of calophyllum teysmannii” (J Nat Prod, 1996).
One block for each compound: values may come before it. The source made the active and inactive calls. No cut-off for these calls is given here.

Experiments:
[1] = biological target: T1, Human immunodeficiency virus type 1 reverse transcriptase (Human immunodeficiency virus 1, UniProt Q72547); assay: Inhibition of DNA dependent DNA polymerase activity of HIV1 recombinant reverse transcriptase p66/p51
DNA polymerase beta [2] = biological target: T2, DNA polymerase beta (Homo sapiens, UniProt P06746); assay: Inhibition of DNA polymerase beta
[3] = biological target: T1, Human immunodeficiency virus type 1 reverse transcriptase; assay: Inhibition of RNA dependent DNA polymerase activity of HIV1 recombinant reverse transcriptase p66/p51
[4] = test system: Avian myeloblastosis virus; assay: Inhibition of Avian myeloblastosis virus reverse transcriptase at 495 uM
[5] = test system: Human immunodeficiency virus 1; assay: Inhibition of TIBO-resistant HIV1 reverse transcriptase p66/p51 Tyr181 mutant expressed in Escherichia coli
[6] = test system: Human immunodeficiency virus 2; assay: Inhibition of HIV2 reverse transcriptase p68/p54 expressed in Escherichia coli at 495 uM
[7] = test system: Human immunodeficiency virus 2; assay: Inhibition of HIV2 reverse transcriptase p68/p54 expressed in Escherichia coli
[8] = biological target: T3, DNA polymerase alpha catalytic subunit (Homo sapiens) (UniProt P09884); assay: (§1) Inhibition of DNA polymerase alpha
T3 sequence (whole entry): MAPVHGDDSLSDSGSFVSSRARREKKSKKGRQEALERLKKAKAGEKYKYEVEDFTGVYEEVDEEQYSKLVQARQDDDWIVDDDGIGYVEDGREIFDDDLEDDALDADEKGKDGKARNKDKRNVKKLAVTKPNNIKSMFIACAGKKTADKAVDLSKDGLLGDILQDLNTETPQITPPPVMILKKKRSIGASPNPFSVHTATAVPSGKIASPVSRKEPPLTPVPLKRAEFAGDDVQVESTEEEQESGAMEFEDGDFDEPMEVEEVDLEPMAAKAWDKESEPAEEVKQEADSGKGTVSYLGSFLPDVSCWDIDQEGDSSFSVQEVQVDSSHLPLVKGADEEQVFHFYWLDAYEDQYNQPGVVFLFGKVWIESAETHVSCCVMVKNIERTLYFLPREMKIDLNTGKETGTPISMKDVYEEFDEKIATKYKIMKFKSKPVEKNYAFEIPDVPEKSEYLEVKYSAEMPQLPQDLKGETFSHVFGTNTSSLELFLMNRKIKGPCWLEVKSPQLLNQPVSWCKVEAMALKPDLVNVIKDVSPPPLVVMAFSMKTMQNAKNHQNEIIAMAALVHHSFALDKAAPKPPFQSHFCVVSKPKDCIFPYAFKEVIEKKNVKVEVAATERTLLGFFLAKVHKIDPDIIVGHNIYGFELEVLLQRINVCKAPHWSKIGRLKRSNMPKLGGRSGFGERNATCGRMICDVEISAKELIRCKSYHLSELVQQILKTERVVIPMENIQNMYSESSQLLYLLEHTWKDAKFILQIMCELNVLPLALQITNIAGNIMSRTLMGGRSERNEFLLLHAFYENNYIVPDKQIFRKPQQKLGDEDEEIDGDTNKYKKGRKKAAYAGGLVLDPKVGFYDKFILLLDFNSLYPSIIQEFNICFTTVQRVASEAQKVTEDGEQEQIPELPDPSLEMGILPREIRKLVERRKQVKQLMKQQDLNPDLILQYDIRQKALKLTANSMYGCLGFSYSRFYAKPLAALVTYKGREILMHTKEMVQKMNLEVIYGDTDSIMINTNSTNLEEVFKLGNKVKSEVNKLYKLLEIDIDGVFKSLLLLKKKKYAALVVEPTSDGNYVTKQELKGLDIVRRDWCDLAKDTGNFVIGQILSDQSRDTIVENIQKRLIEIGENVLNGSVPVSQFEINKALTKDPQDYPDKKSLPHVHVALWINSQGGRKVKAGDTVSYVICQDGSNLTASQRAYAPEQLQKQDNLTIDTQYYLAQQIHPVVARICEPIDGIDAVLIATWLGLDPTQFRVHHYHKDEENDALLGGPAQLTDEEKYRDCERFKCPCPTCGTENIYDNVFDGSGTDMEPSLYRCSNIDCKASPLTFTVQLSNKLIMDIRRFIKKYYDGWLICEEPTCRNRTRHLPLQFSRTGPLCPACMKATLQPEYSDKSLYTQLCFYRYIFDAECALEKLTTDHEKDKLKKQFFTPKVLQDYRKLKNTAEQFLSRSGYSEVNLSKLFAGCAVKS

[9] = Inhibition of RNA polymerase
[10] = biological target: Human immunodeficiency virus type 1 reverse transcriptase (Human immunodeficiency virus 1) (UniProt Q72547); assay: Inhibition of DNA dependent DNA polymerase activity of HIV1 recombinant reverse transcriptase p66/p51 at 495 uM
[11] = test system: Avian myeloblastosis virus; assay: Inhibition of Avian myeloblastosis virus reverse transcriptase
[12] = Inhibition of RNA polymerase at 495 uM
Escherichia coli = assay: Inhibition of Escherichia coli RNase H at 495 uM
[13] = biological target: T3, DNA polymerase alpha catalytic subunit (Homo sapiens); assay: Inhibition of DNA polymerase alpha at 495 uM
[14] = biological target: Human immunodeficiency virus type 1 reverse transcriptase (Human immunodeficiency virus 1) (UniProt Q72547); assay: Inhibition of RNA dependent DNA polymerase activity of HIV1 recombinant reverse transcriptase p66/p51 at 495 uM
[15] = Inhibition of Escherichia coli RNase H
[16] = test system: Human immunodeficiency virus 1; assay: Inhibition of TIBO-resistant HIV1 reverse transcriptase p66/p51 Tyr181 mutant expressed in Escherichia coli at 495 uM
DNA polymerase beta [17] = biological target: T2, DNA polymerase beta; assay: Inhibition of DNA polymerase beta at 495 uM
[18] = biological target: T4, DNA polymerase alpha catalytic subunit (Homo sapiens, UniProt P09884); assay: as §1
T4 sequence (P09884 whole entry): T3 sequence (whole entry)

IC50 [1]: 320 nM
IC50 (DNA polymerase beta [2]): 205000 nM
SMILES: CCCc1cc(=O)oc2c3c(c4c(c12)OC(C)(C)C=C4)O[C@H](C)[C@@H](C)[C@@H]3O [CALANOLIDE A]

IC50 [1]: 290 nM
IC50 [3]: 1400 nM
SMILES: CCCc1cc(=O)oc2c3c(c4c(c12)OC(C)(C)C=C4)O[C@@H](C)[C@H](C)[C@@H]3O [COSTATOLIDE]

SMILES: C[C@H]1[C@H](C)Oc2c3c(c4c(-c5ccccc5)cc(=O)oc4c2[C@H]1O)OC(C)(C)C=C3 [SOULATTROLIDE]
inhibition [4]: 20.2%
Activity [5]: inactive
inhibition [6]: 0.7%
Activity [7]: inactive
Activity [8]: inactive
Activity [9]: inactive
inhibition [10]: 87.2%
Activity [11]: inactive
inhibition [12]: 29.7%
inhibition (Escherichia coli): 86.5%
inhibition [13]: 28.1%
inhibition [14]: 96.2%
IC50 [15]: 69500 nM
inhibition [16]: 31.5%
inhibition (DNA polymerase beta [17]): 49.6%
IC50 [1]: 340 nM
IC50 (DNA polymerase beta [2]): > 495000 nM
IC50 [3]: 730 nM

IC50 [18]: 11000 nM
IC50 [1]: 51 nM
IC50 (DNA polymerase beta [2]): 16000 nM
SMILES: Cc1cn([C@H]2C[C@H](N=[N+]=[N-])[C@@H](CO[P@](=O)(O)O[P@](=O)(O)OP(=O)(O)O)O2)c(=O)[nH]c1=O [ZIDOVUDINE TRIPHOSPHATE]
